Laboratory results from publication PMC3917258, “6-Bromoisatin Found in Muricid Mollusc Extracts Inhibits Colon Cancer Cell Proliferation and Induces Apoptosis, Preventing Early Stage Tumor Formation in a Colorectal Cancer Rodent Model” (Marine Drugs, 2013).

Tests used:
[1] = test system: HT29 cells; assay: LDH release (CytoTox-ONE membrane integrity, necrosis); assay type: cell-based, human; conditions: any concentration, in comparison with DMSO control, 12 h
Procedure: All media and chemicals were purchased from Sigma Aldrich (Castle Hill, NSW, Australia) unless otherwise stated. HT29 human colorectal cancer cell line (passage no. 36-42) were cultured (37 °C and 5% CO2) in Dulbecco’s Modified Eagle’s Medium (DMEM) supplemented with 4500 mg/L L-glutamine, 10% FBS, 100 U/mL Penicillin/Streptomycin and 1% Non-essential Amino Acid (100×), until the cells reached 70% confluence. The cells were harvested from flasks by trypsinization (1× Trypsin-EDTA) and were seeded (20,000 cells/well) into clear 96-well plates (Costar®, Mt Martha, VIC, Australia) for measurement of cell viability and white (opaque) 96-well plates (Interpath, Heidelberg West, VIC, Australia) for determination of apoptosis and necrosis. HT29 cells were incubated for 48 h, then the media was removed and the cells were washed with PBS. To treat the cells, synthetic 6-bromoisatin was dissolved in 100% dimethylsulphoxide (DMSO) then diluted in media and added to the cells at a range of concentrations from 0.1 to 0.01 mg/mL, in triplicate (final DMSO concentration of 1%). 1% DMSO controls were also included on each plate. Staurosporine (5 µM) for apoptosis and lysis solution (5 μL/well, Promega, Alexandria, NSW, Australia) for necrosis were added to the white plates in triplicate, as positive controls. All cells were treated for 12 h. […]

[2] = test system: caspase 3/7 activity in HT29 cells; assay: Caspase-Glo 3/7 assay; assay type: cell-based, human; conditions: 12 h
Procedure: All media and chemicals were purchased from Sigma Aldrich (Castle Hill, NSW, Australia) unless otherwise stated. HT29 human colorectal cancer cell line (passage no. 36-42) were cultured (37 °C and 5% CO2) in Dulbecco’s Modified Eagle’s Medium (DMEM) supplemented with 4500 mg/L L-glutamine, 10% FBS, 100 U/mL Penicillin/Streptomycin and 1% Non-essential Amino Acid (100×), until the cells reached 70% confluence. The cells were harvested from flasks by trypsinization (1× Trypsin-EDTA) and were seeded (20,000 cells/well) into clear 96-well plates (Costar®, Mt Martha, VIC, Australia) for measurement of cell viability and white (opaque) 96-well plates (Interpath, Heidelberg West, VIC, Australia) for determination of apoptosis and necrosis. HT29 cells were incubated for 48 h, then the media was removed and the cells were washed with PBS. To treat the cells, synthetic 6-bromoisatin was dissolved in 100% dimethylsulphoxide (DMSO) then diluted in media and added to the cells at a range of concentrations from 0.1 to 0.01 mg/mL, in triplicate (final DMSO concentration of 1%). 1% DMSO controls were also included on each plate. Staurosporine (5 µM) for apoptosis and lysis solution (5 μL/well, Promega, Alexandria, NSW, Australia) for necrosis were added to the white plates in triplicate, as positive controls. All cells were treated for 12 h. Morphological changes in the cells were observed on an Olympus CK2 inverted optical microscope (×400 magnification) 12 h after treatment. To measure cell viability, the MTT assay was applied, which measures the reduction of MTT tetrazolium salt to formazan, as previously described. To measure necrosis and apoptosis, CytoTox-ONE Homogeneous Membrane Integrity Assay reagent (Promega) and Caspase-Glo 3/7® assay (Promega) were applied respectively, according to our previous study. These assays were all repeated in triplicate on three separate occasions (n = 3).

[3] = General observations for signs of illness; assay type: in vivo, mice (C57BL/6J); conditions: mice, 0.025-0.1 mg/g daily oral gavage two weeks
Procedure: (§1) This experiment was conducted under Flinders animal welfare approval number 751-10. A total of 38 wild-type (C57BL/6J) male mice aged 10 weeks were obtained from the Animal Resource Centre, Perth, Western Australia. Mice were divided randomly into 4 groups (ten mice in each treatment group and 8 mice in the sunflower oil only control group) and housed in 8 cages (four to five mice per cage). The mice were given water and food (rodent chow) ad libitum and maintained at the temperature of 22 ± 2 °C and humidity of 80% ± 10% with a 12 h light/dark cycle. Mice were weighed every five days and on the day of kill, and monitored daily for signs of illness, such as weight and hair loss, diarrhea, constipation, rectal bleeding, labored breathing, lethargy, eye and nose discharge.

[4] = test system: epithelial cells of distal colon; assay: AARGC mouse model: apoptotic index; assay type: in vivo, mice (C57BL/6J)
Procedure: as §1
(§2) To detect the early stage prevention of colon cancer, an established AARGC rodent model with injection of the carcinogen AOM was used. Synthetic 6-bromoisatin at 3 different dosages (0.025, 0.05 and 0.1 mg/g body weight) was administered to mice by daily oral gavage in 100 µL sunflower oil, containing 0.02% Vitamin E, for two weeks. The control group was gavaged with sunflower oil (containing 0.02% Vitamin E) only. After two weeks, all mice were injected with a single intraperitoneal (i.p.) injection of AOM at a dosage of 10 mg/kg bodyweight and euthanized 6 h later by cervical dislocation under anesthesia. […] The distal colon of each mouse was excised and fixed in 10% buffered formalin for 24 h and then embedded in paraffin for histological and immunohistological examination.
Distal colon segments were embedded in paraffin and sectioned at 4 µm (3–4 sections per mouse), then stained with hematoxylin, to evaluate apoptosis in epithelial cells of distal colon sections. The slides were examined under a light microscope (Olympus BH-2, Mt Waverly, VIC, Australia, 400× magnification) to identify the apoptotic cells, by characteristic morphological changes such as cell shrinkage, condensed chromatin and sharply delineated cell borders surrounded by an unstained halo [26, 49]. Twenty randomly chosen crypts were used to calculate the percent of apoptotic cells per crypt. The mean crypt column height was also determined.

[5] = test system: distal colon crypts; assay: AARGC mouse model: crypt height; assay type: in vivo, mice (C57BL/6J); conditions: 0.025-0.1 mg/g daily oral gavage 14 days, 6 h post AOM
Procedure: as §1
To detect the early stage prevention of colon cancer, an established AARGC rodent model with injection of the carcinogen AOM was used. Synthetic 6-bromoisatin at 3 different dosages (0.025, 0.05 and 0.1 mg/g body weight) was administered to mice by daily oral gavage in 100 µL sunflower oil, containing 0.02% Vitamin E, for two weeks. […]
Distal colon segments were embedded in paraffin and sectioned at 4 µm (3–4 sections per mouse), then stained with hematoxylin, to evaluate apoptosis in epithelial cells of distal colon sections. […] The mean crypt column height was also determined.

[6] = Body and liver weight of treated mice; assay type: in vivo, mice (C57BL/6J); conditions: mean ± S.E.; for Liver weight / Liver/Body (%): day of kill; for Total weight Gain / Body weight (Day1) / Body weight (Day5) / Body weight (Day10) / Body weight (Day14): mice
Procedure: as §1, §2

[7] = test system: distal colonic epithelial cells; assay: AARGC mouse model: Ki-67 proliferation index; assay type: in vivo, mice (C57BL/6J); conditions: distal colon, compared to oil control
Procedure: as §1, §2
Ki-67 is a cell cycle associated antigen and regarded as a useful proliferation marker. Proliferative activity of distal colonic epithelial cells was measured using an antibody specific for the nuclear proliferating antigen ki-67 (rat-anti-mouse clone TEC-3, Dako, Campbellfield, VIC, Australia) in combination with an immunohistochemistry detection method in paraffin embedded sections, as previously described. […]

[8] = 0.025 mg/g daily oral gavage 14 days
[9] = 0.05 mg/g daily oral gavage 14 days
[10] = 0.1 mg/g daily oral gavage 14 days

- signs of illness [3]: did not show any signs of illness
- Total weight Gain [6, 8]: 1.4 ± 0.8 g
- Total weight Gain [6, 9]: 1.4 ± 1.0 g
- Total weight Gain [6, 10]: 1.4 ± 0.8 g
Compound: O=C1Nc2cc(Br)ccc2C1=O [6-bromoisatin, 6-Bromoindole-2,3-dione]
- level of lactate dehydrogenase (LDH) [1]: No increase
- caspase 3/7 activity ([2]; 446 μM = 0.1 mg/mL, compared to DMSO control): minor but significant reduction
- caspase 3/7 activity ([2]; concentrations <0.1 mg/mL): did not increase caspase 3/7 activity
- diarrhea / stool consistency [3]: no diarrhea or change in stool consistency
- increase in apoptotic index over the oil control ([4]; 0.05 mg/g daily oral gavage two weeks, distal colon, 6 h post AOM 10 mg/kg): 2.3 fold
- apoptotic index lower than the dose of 0.05 mg/g ([4]; 0.1 mg/g daily oral gavage two weeks, distal colon): 40%
- apoptotic index ([4]; 0.1 mg/g daily oral gavage two weeks, distal colon, compared with control): significantly induced apoptosis
- apoptotic index ([4]; lowest concentration (0.025 mg/g) daily oral gavage two weeks, compared to AOM injected control): not a significant difference
- colon crypt height [5]: no significant effect
- Liver weight [6, 8]: 1.0 ± 0.1 g
- Liver/Body (%) [6, 8]: 4.4 ± 0.6%
- Body weight (Day1) ([6]; 0.025 mg/g daily oral gavage): 22.2 ± 1.3 g
- Body weight (Day5) ([6]; 0.025 mg/g daily oral gavage): 22.7 ± 1.3 g
- Body weight (Day10) ([6]; 0.025 mg/g daily oral gavage): 23.0 ± 1.3 g
- Body weight (Day14) ([6]; 0.025 mg/g daily oral gavage): 23.6 ± 1.4 g
- Liver weight [6, 9]: 1.2 ± 0.1 g
- Liver/Body (%) [6, 9]: 5.2 ± 0.6%
- Body weight (Day1) ([6]; 0.05 mg/g daily oral gavage): 22.6 ± 1.2 g
- Body weight (Day5) ([6]; 0.05 mg/g daily oral gavage): 23.4 ± 1.2 g
- Body weight (Day10) ([6]; 0.05 mg/g daily oral gavage): 23.4 ± 1.5 g
- Body weight (Day14) ([6]; 0.05 mg/g daily oral gavage): 24.1 ± 1.6 g
- Liver weight [6, 10]: 1.3 ± 0.1 g
- Liver/Body (%) [6, 10]: 5.3 ± 0.4%
- Body weight (Day1) ([6]; 0.1 mg/g daily oral gavage): 22.3 ± 1.3 g
- Body weight (Day5) ([6]; 0.1 mg/g daily oral gavage): 22.6 ± 1.3 g
- Body weight (Day10) ([6]; 0.1 mg/g daily oral gavage): 23.3 ± 1.3 g
- Body weight (Day14) ([6]; 0.1 mg/g daily oral gavage): 23.8 ± 1.6 g
- cell proliferation ([7]; 0.025 mg/g daily oral gavage two weeks): did not show a significant anti-proliferative effect
- cell proliferation ([7]; 0.05 mg/g daily oral gavage two weeks): significantly reduced
- reduction in cell proliferation ([7]; 0.1 mg/g daily oral gavage two weeks): more than 50%
